Among the data in patent US11149008B2, “Sulfamide derivatives and preparation method and use thereof” (HitGen Ltd., priority 2015, dated 2021) are EC50 values, retold here.

Molecules are shown by their SMILES.

Assay [1] concerns HepG2 cells. Description: Cell growth inhibition measurement (CCK-8), HepG2. Type of assay: cell-based. The conditions noted are these: Homo sapiens, HepG2, 72 h, highest EC50 measured during one or multiple operations, read-out: Inhibition activity against cancer cells, HepG2 (EC50). An excerpt: (§1) A HepG2 cell strain and an HCT-116 cell strain were purchased from Shanghai Institutes for Biological Sciences; a DMEM high-sugar culture medium and an MEM culture medium were purchased from Hyclone; fetal calf serum was purchased from Gibco; trypsin was purchased from Invitrogen Shanghai; a CCK-8 kit was purchased from Beyotime Institute of Biotechnology; and, the remaining cell culture mediums and other consumables were purchased from Corning China.
(§2) HepG2 cells and HCT-116 cells in the logarithmic growth phase were digested by trypsin. After the counting of uniform cell suspension, the cell density was adjusted as 1500 cells/well by a culture medium containing 10% serum. The cells were re-inoculated to a 96-well cell culture plate, and cultured to a volume of 200 μL at 37° C. in an incubator containing 5% CO2. The cells could be tested after being cultured for 24 h.
(§3) The cells cultured for 24 h were taken out from the incubator. The culture liquid in the well plate was sucked out, and 200 μL of compound solution prepared in the culture medium containing 10% fetal calf serum was added in each well. Five parallel mediums were provided for each concentration, and a DMSO culture medium was used as negative control. The culture mediums were cultured for 72 h at 37° C. in an incubator containing 5% CO2, and CCK-8 detection was performed.
(§4) A serum-free culture medium and CCK-8 solution were prepared, and CCK-8 working solution was prepared at a ratio of 10:1 (this process should be performed in dark place).
(§5) The cells cultured for 72 h were taken out from the incubator. The culture liquid in the well plate was sucked out, and 120 μL of the CCK-8 working solution was added in each well. A well plate without cells was also added with 120 μL of the CCK-8 working solution to serve as blank control. The well plates were cultured for 1 h at 37° C. in an incubator containing 5% CO2 (this process should be performed in dark place).
(§6) The well plates were taken out from the incubator, 100 μL of solution in each well was sucked out and added in a new 96-well plate, and the absorbance was measured at 450 nm (this process should be performed in dark place).
(§7) where Tx is the absorbance of the CCK-8 after the compound acts for 72 h;
(§8) C is the absorbance of the CCK-8 after the negative control wells are cultured for 72 h; and
(§9) B is the absorbance of the CCK-8 in the blank control wells.
(§10) The test results of the compounds prepared according to the embodiments during the measurement are shown in Table 3, wherein the measured highest EC50 of the compounds during one operation or multiple operations is classified according to the following description: […]

Assay [2] deals with HCT-116 cells. Description: Cell growth inhibition measurement (CCK-8), HCT-116. Type of assay: cell-based. The following applies: Homo sapiens, HCT-116, 72 h, highest EC50 measured during one or multiple operations, read-out: Inhibition activity against cancer cells, HCT-116 (EC50).
Description: as §1, §2, §3, §4, §5, §6, §7, §8, §9, §10

With `CN1CCN(c2ccc(-c3ccc(S(=O)(=O)N4CC=C(C(=O)NO)CC4)cc3)cc2)CC1` [Compound 29, N-hydroxyl-1-((4′-(4-methylpiperazinyl)-[1,1′-biphenyl]-4-yl)sulfonyl)-1,2,3,6-tetrahydropyridine-4-formamide], the EC50 in assay [1] and in assay [2] was less than 0.1 µM in each case.
